Results: patent publication US10071989B2, “Substituted cinnamamide derivative, preparation method and use thereof” (TASLY PHARMACEUTICAL GROUP CO., LTD., priority 2011, dated 2018)
“Also recorded” adds a separate entry of the source. Counter-ions that a name gives are not always drawn. Like-named read-outs stand apart in the source and are kept apart here. Marks after values point to notes of the source that are not given here.

Assays:
Format in all cases: in vivo
C57BL/6 mice [1] = assay: Number of autonomic activity of mice (YLS-1A autonomic activity recorder); settings: for Number of Autonomic activity (time): 10 mg/kg intragastric once daily, counted 30 min after administration at 6th day; for Effect on autonomic activity of mice (in words): 10 mg/kg intragastric, one week, compared with the solvent control group
Procedure: 110 mice were randomly selected to observe the number of their autonomic activity. The mice was placed into the YLS-1A multi-functional mice autonomic activity recorder, and after 1 min of adaption, the mice's activity was counted within a time period from the end of 1st min to 4th min. 96 mice with the number of autonomic activity between 70˜140 were screened out, divided randomly into 8 groups, and intragastrically administrated with the drug compounds at a dose listed in Table 1, one time daily for 7 days consecutively. The solvent control group was administrated with 2% Tween-80 aqueous solution in the same volume. All mice were placed into the autonomic activity recorder 30 min after administration at 6th day. After 1 min of adaption, the mice's activity was counted within a time period from the end of 1st min to 4th min.
(§1) 130 mice were randomly selected to observe the number of their autonomic activity. The method was the same with that of Experiment 1. 108 mice with the number of autonomic activity between 70˜140 were screened out, divided randomly into 9 groups, and intragastrically administrated with the drug compounds at a dose listed in Table 2, one time daily for 7 days consecutively. The solvent control group was administrated with 2% Tween-80 aqueous solution in the same volume. 30 min after administration at 6th day, the number of the autonomic activity of each mouse was observed. 30 min after administration at 7th day, the immobility time in tail suspension test was observed. The method was the same with that in Experiment 1.

C57BL/6 mice [2] = assay: Depression model test of anti-blepharoptosis caused by reserpine (akinesia, blepharoptosis, shell temperature); settings: for Blepharoptosis, “out-of-circle” ratio and shell temperature after reserpine (effect in words) / Change in the shell temperature (T ° C.) / Degree of eye-closure / responders at 10 mg/kg / Change in the shell temperature (ΔT ° C.): 10 mg/kg intragastric 7 days; for Blepharoptosis, “out-of-circle” ratio and shell temperature after reserpine (effect in words): compared with the solvent control group; for Change in the shell temperature (T ° C.) / Degree of eye-closure / responders at 10 mg/kg / Change in the shell temperature (ΔT ° C.): reserpine 4 mg/kg i.p.; for Change in the shell temperature (T ° C.) / Change in the shell temperature (ΔT ° C.): abdomen, two hours after reserpine; for Change in the shell temperature (T ° C.) / Degree of eye-closure / Change in the shell temperature (ΔT ° C.): ±SD; for Degree of eye-closure: score 0-4 one hour after reserpine; for responders at 10 mg/kg: Mus musculus, po, 1 h, one hour after reserpine, 7.5 cm circle, 15-second observation, read-out: “out-of-circle” ratio; for “out-of-circle” ratio after reserpine compared with I-1 (in words): compared with I-1, p<0.05
Procedure: 120 male C57BL/6 mice were randomly selected to observe the number of their autonomic activity. The mice was placed into the YLS-1A multi-functional mice autonomic activity recorder, and after 1 min of adaption, the activity of the mice was counted within a time period from the end of 1st min to 4th min. 96 mice with the number of autonomic activity between 70˜140 were screened out, divided randomly into 8 groups, and intragastrically administrated with the drug compounds at a dose listed in Table 3, one time daily for 7 days consecutively. The solvent control group was administrated with 2% Tween-80 aqueous solution in the same volume. Except the normal control group, 30 min after the last administration, each group was injected intraperitoneally with reserpine at a dose of 4 mg/kg. Next, akinesia, blepharoptosis and shell temperature were observed.
I Akinesia: one hour after intraperitoneal injection of reserpine, the mice were placed at the center of a circle with a diameter of 7.5 cm for a 15-second observation to calculate the “out-of-circle” ratio.
II Blepharoptosis: one hour after intraperitoneal injection of reserpine, the eye closure of mice was observed and scored by the following standard: eyelids open, 0; eyelids ¼ closed, 1; eyelids 2/4 closed, 2; eyelids ¾ closed, 3; eyelids closed completely, 4.
III Shell temperature: two hours after intraperitoneal injection of reserpine, the shell temperature of the abdomen of the mice was measured.
120 C57BL/6 mice were randomly selected to observe the number of their autonomic activity. The method was the same with that of Experiment 1. 100 mice with the number of autonomic activity between 70˜140 were screened out, divided randomly into 10 groups, and intragastrically administrated with the drug compounds at a dose listed in Table 4, one time daily for 7 days consecutively. The mice in the normal group and the solvent control group were administrated with 2% Tween-80 aqueous solution in the same volume. Except the normal control group, 30 min after the last administration, each group was injected intraperitoneally with reserpine at a dose of 4 mg/kg. Next, akinesia, blepharoptosis and shell temperature were observed. Observation method was the same with that of Experiment 1.

C57BL/6 mice [3] = assay: Forced swimming experiment in mice; settings: 10 mg/kg intragastric once daily for 7 days; 30 min after last administration; end of 2nd min to 6th min
Procedure: After 1˜2 days of adaptive feed, 80 male C57BL/6 mice, aged 6˜8 weeks and weighing 18˜22 g, were placed into the YLS-1A multi-functional mice autonomic activity recorder. After 1 min of adaption, the activity of the mice was counted within a time period from the end of 1st min to 4th min. 60 mice with the number of autonomic activity between 70˜140 were screened out, divided randomly into 6 groups, and intragastrically administrated with the drug compounds at a dose listed in Table 5, one time daily for 7 days consecutively. The solvent control group was administrated with 2% Tween-80 aqueous solution in the same volume. After the administration at 6th day, the mice were placed into a cylindrical aquarium with a water depth of 10 cm and 25° C. to force the mice to swim. After 15 min, the mice were taken out, dried and returned to the cage. 24 hours later, 30 min after the last intragastrical administration, the mice were placed into a glass bottle with a diameter of 10 cm, a height of 30 cm and a water depth of 10 cm, and the temperature of the water in the bottle was at 25° C. The mice were separated with an opaque partition, so as not to influence each other. After 2 min of adaption, an accumulated immobility time from the end of 2nd min to 6th min was recorded.

C57BL/6 mice [4] = assay: "Acquired despair" depression model of tail suspension test in mice; settings: 10 mg/kg intragastric for 7 days; compared with the solvent control group
Procedure: 30 min after administration at 7th day, the mice was fixed on a sustainer with a rubberized cloth at 1 cm close to the end of the tail of mice, making the mice hanged upside down. The head of the mice was about 30 cm above the table and its sight was separated from the neighboring mouse with a plate. Usually, the mice might manage to struggle in hopes of overcoming the abnormal body position. […] The accumulated immobility time within 6 min of each mouse was observed, which was regarded as “despair time”.
as §1

mice = assay: Anti-depression effect in the tested models (overall conclusion); settings: in the tested model at the tested dose
Source text: Based on the aforesaid experiments, the following conclusion can be drawn: • 1.

[5] = Experiment 1, end of 1st min to 4th min

Compound	Number of Autonomic activity (time) (C57BL/6 mice [1]; Experiment 2)	Blepharoptosis, “out-of-circle” ratio and shell temperature after reserpine (effect in words) (C57BL/6 mice [2])	Change in the shell temperature (T ° C.) (C57BL/6 mice [2]; Experiment 2) [°C]	Degree of eye-closure (C57BL/6 mice [2]; Experiment 2)	responders at 10 mg/kg (C57BL/6 mice [2]; Experiment 2) [%]	Immobility time in the forced swimming test in mice(s) (C57BL/6 mice [3])	Effect on autonomic activity of mice (in words) (C57BL/6 mice [1])	Number of Autonomic activity (time) (C57BL/6 mice [1]; [5])	Effect on immobility time in tail suspension test (in words) (C57BL/6 mice [4])	Blepharoptosis, “out-of-circle” ratio and shell temperature after reserpine (effect in words) (C57BL/6 mice [2]; hydrochloride)	Change in the shell temperature (ΔT ° C.) (C57BL/6 mice [2]; Experiment 1) [°C]	Degree of eye-closure (C57BL/6 mice [2]; Experiment 1)	responders at 10 mg/kg (C57BL/6 mice [2]; Experiment 1) [%]	“out-of-circle” ratio after reserpine compared with I-1 (in words) (C57BL/6 mice [2]; 10 mg/kg)	Degree of eye closure / blepharoptosis after reserpine compared with I-1 (in words) (C57BL/6 mice [2]; 10 mg/kg)	Anti-depression effect compared with the pharmacologic effect of I-1 (in words) (mice)	Blepharoptosis, shell temperature and “out-of-circle” ratio compared with Compound I-1 (in words) (C57BL/6 mice [2]; 10 mg/kg, compared with I-1, p<0.05, p<0.01)	Improving akinesia, blepharoptosis and shell temperature: ranking among the tested compounds (in words) (C57BL/6 mice [2]; 10 mg/kg, within the experiment)
CN(C)C(=O)/C=C/c1cc2c(c(C(F)(F)F)c1)OCO2 [Compound I-8, N,N-dimethyl-5′-trifluoromethyl-3′,4′-methylenedioxy cinnamamide]	84.00 ± 21.81	remarkably improve; also recorded: antagonizing the decrease of shell temperature, akinesia and improving the degree of eye closure	27.60 ± 0.88	2.30 ± 1.64	40	–	–	–	–	–	–	–	–	–	–	–	–	–
CNCCC(Oc1ccc(C(F)(F)F)cc1)c1ccccc1 (stereo not shown) [fluoxetine hydrochloride, Fluoxetine hydrochloride, reference compound]	102.0 ± 14.91	–	29.20 ± 0.54	2.00 ± 1.33	50	98.96 ± 32.43	had no effect	121.75 ± 24.14	reduce the immobility time in tail suspension test significantly	obviously increase mice “out-of-circle” ratio and shell temperature, and significantly reduce the degree of eye closure of the mice; also recorded: improve the “out-of-circle” ratio obviously, and significantly reduce the degree of eye closure and raise the shell temperature	1.89 ± 0.21	1.42 ± 1.38**Δ	58	–	–	–	–	–
COc1cc(/C=C/C=C/C(=O)NCC(C)C)cc2c1OCO2 [Compound I-6, N-isobutyl-5-(5′-methoxy-3′,4′-methylenedioxyphenyl)pentadienamide]	–	improved significantly	–	–	–	–	–	98.83 ± 17.56	–	–	1.84 ± 0.22	2.08 ± 1.68	67	increased markedly	–	–	–	–
CC(C)CNC(=O)/C=C/c1cc(I)c2c(c1)OCO2 [Compound I-3, N-isobutyl-5′-iodo-3′,4′-methylenedioxy cinnamamide]	–	improved significantly	–	–	–	–	–	94.42 ± 23.97	–	–	1.72 ± 0.26	1.00 ± 1.13**^ΔΔ	92	increased markedly	reduced	–	–	–
CCN(CC)C(=O)/C=C/c1cc2c(c(C(F)(F)F)c1)OCO2 [Compound I-9, N,N-diethyl-5′-trifluoromethyl-3′,4′-methylenedioxy cinnamamide]	83.60 ± 22.68	remarkably improve; also recorded: antagonizing the decrease of shell temperature, akinesia and improving the degree of eye closure	28.70 ± 1.78	1.80 ± 1.23	30	–	had no effect	–	reduce the immobility time of the mice in tail suspension test significantly; also recorded: significantly shorten the immobility time	–	–	–	–	–	increased improvement	increased to some degree	–	–
CC(C)CNC(=O)c1cc2c(c(C(F)(F)F)c1)OCO2 [Compound I-12, N-isobutyl-5-trifluoromethyl-3,4-methylenedioxy benzamide]	93.20 ± 19.54	remarkably improve; also recorded: antagonizing the decrease of shell temperature, akinesia and improving the degree of eye closure	30.65 ± 1.16	1.50 ± 1.18	70	–	had no effect	–	reduce the immobility time of the mice in tail suspension test significantly; also recorded: significantly shorten the immobility time	–	–	–	–	–	–	increased to some degree	significantly improved effect	better effects
CC(C)CNC(=O)/C=C/c1cc2c(c([N+](=O)[O-])c1)OCO2 [Compound I-2, N-isobutyl-5′-nitro-3′,4′-methylenedioxy cinnamamide]	–	improved significantly	–	–	–	–	–	102.00 ± 26.24	–	–	1.60 ± 0.18	1.67 ± 1.30	83	increased markedly	–	–	–	–
